Consider two compounds from US20230303577A1, “TEMOZOLOMIDE ANALOGS AND METHODS OF USE” (St. John's Cancer Institute, priority 2020, published 2023).

pIC50: −log10 of the molar value. Like-named read-outs stand apart in the source and are kept apart here.

For series [1], the system named is T98G cells. Nature of the series: Cell Titer Glo viability of T98G cells with or without O6-BG pretreatment. The format is cell-based. The note with it: Homo sapiens. The procedure:
T98G cells, which express MGMT, were treated with TMZ or test compounds with or without 3, 6, or 24 hours of pretreatment with 100 μM of O^6-benzylguanine (O^6-BG; a pseudo-substrate of MGMT that quenches the cellular store of enzyme). T98G cell lysates were probed with anti-MGMT antibody and then with anti-a tubulin (FIG. 4). In a separate experiment, TMZ or test compounds were added to T98G cells with or without 5-6 hours of pretreatment with 100 μM O^6-BG. Cell viability was measured using the Cell Titer Glo assay after 3 days of incubation and IC50 values were determined (Table 3).
(ATP-based viability assays read luminescence as a measure of living cells.)

In series [2] the test system is U251. In words: cells. The conditions noted are these: Homo sapiens, U-251, 72 h, read-out: IC50 U251 cell proliferation (BrdU ELISA).
Experimental: U87 cells were seeded at the density of 2,000 cells/well in 96-well plates and incubated overnight. The day after, cells were treated with various concentrations of Temozolomide or analogs for 72 hours. The BrdU ELISA proliferation assay was performed according to the manufacturer's instructions (Roche, #11647229001). Briefly, 20 μl of diluted BrdU labelling reagent was added to each well, to a final concentration of 10 μM BrdU per well. The cells were then incubated at 37° C. for 24 hours. Following this incubation, the labeling medium was aspirated from each well and 200 μl of Roche FixDenat fixing buffer was added. The plates were then incubated at 25° C. for 30 minutes. The fixing solution was removed, and 100 μl of Anti-BrdU-POD antibody was added to each well and incubated again at 25° C. for 90 minutes. Wells were rinsed three times with 200 μl of PBS, then 100 μl of Roche Substrate solution was added to each well. Following a 25 minute incubation at room temperature, the absorbance of each plate was read at 370 nm (reference wavelength: approx. 492 nm) on a Spectramax® i3x microplate reader.
The effect on U251 cell proliferation after 72 hours of treatment was also assessed using the BrdU ELISA cell proliferation assay as described in Example 11.
For series [3] the following is noted: background statement; cited from earlier work.
In series [4] the test system is A172. Nature of the series: cells. The conditions noted are these: Homo sapiens, A 172, 72 h, read-out: IC50, 72 h. As for the experimental part: The effect of selected compounds on glioma cells viability was determined. The cells were plated at 2000 cells/well in 96 well plates. The day after, cells were treated with various concentrations of temozolomide or VMY-TP analogs.
Activity of TP-RGD was assessed in glioma cell cultures, as described in Example 11.

For series [5], the system named is U87-Luc. In words: Orthotopic U87-Luc human glioblastoma tumor xenograft model. The conditions noted are these: 10 mg/kg oral gavage. The series is classed as in vivo, Athymic Nude mice. The procedure: Animal studies were performed in accordance with Translational Drug Development, LLC IACUC-approved protocols. Intracranial tumors were generated by injecting 3×10^5 U87-Luc cells in […] of growth media into the right corpus striatum (1 mm anterior and 2 mm lateral to the bregma, depth of 3 mm) of Athymic Nude (Crl:NU(NCr)-Foxn1nu) mice (Charles River, Hollister, CA). Treatment was initiated 7 days after injection. […] Oral gavage treatments were formulated in 10% PEG300 in PBS. Bioluminescence (Total ROI, photons/s) images were performed under anesthesia once weekly starting on Day 1 (7 days post inoculation of U87-Luc cells) and body weights were recorded twice weekly. […] Upon peri-morbidity or at study end, mice were euthanized, brain tumor was excised from right side of brain, and a wet weight was recorded. If tumor was not grossly identifiable, expected tumor-region of the brain was collected. Tissue was fixed in formalin for 48-72 hours and then stored in 70% Ethanol.
A minimum of 100 μL/mouse of whole blood was collected via submandibular survival bleed on Day 10 and Day 27 from 3 mice per group (selected by TD2) from Groups 1, 2 and 4 for assessment of hematological toxicity. Blood was placed in K2-EDTA microtainer tubes (Becton, Dickinson & Co.; Franklin Lakes, NJ) and mixed thoroughly before CBC analysis at TD2.
(In general: In xenograft studies the graft and the host belong to different species.)

Series [6] relates to U87 cells. In words: U87 subcutaneous flank xenograft GBM model. The conditions noted are these: 20 mg/kg orally, once daily then every other day, 14 days. The series is classed as in vivo, SCID mice. The procedure:
A suspension of U87 cells was prepared in 1×HBSS, pH 7.4 and mixed with an equal volume (1:1) of ice cold Matrigel®. Then, 0.1 mL of the cell suspension containing 5×10^6 cells was injected subcutaneously using a 22-gauge needle into the flank region of SCID mice. Animals were monitored daily during the period between inoculation and study initiation. Treatment was started when the average tumor size reached approximately ˜100 mm^3. The test (TP3) and Reference compound (TMZ) were administered orally at 20 mg/kg at a dose volume of 10 mL/Kg. The exact dose was administered based on individual animal body weight recorded during the study period. The TP3 and TMZ treatments were scheduled for once daily dosing for 14 days. However, the dose frequency had to be reduced from once daily to every other day, due to a 10-14% loss of body weight seen in the treated mice from Day 9 until study completion (FIG. 11D). The control group was administered vehicle alone. The test and reference compounds were formulated in 0.4% (v/v) Tween 80, 2% (v/v) Glycerol and 97.6% (v/v) of 30% (w/v) Captisol (SPECD). Number of mice per treatment cohort=8. Tumor growth was measured twice weekly using a digital Vernier caliper.

Consider `Cn1nnc2c(C(N)=O)ncn2c1=O` [TMZ, temozolomide], for which the pIC50 is under 3.00 in series [1] (5-6 h pretreatment with 100 μM O6-BG, 3 days, read-out: IC50 With O^6-BG pretreatment); under 3.00 in series [1] (3 days, read-out: IC50 Without O^6-BG pretreatment); under 3.70 in series [2]; under 4.00 in series [4]. Also, in series [3], the “retention in the cerebral parenchyma” value is 20%. Also, the “effect on body weight” value in series [5] (QD×5×4, compared to control) was “impacted body weight”. Moreover, in series [5] (QD×5×4, control 2.43E+08), the “day 22 mean BLI value” is 1.87E+06 photon/s.
As for `CCCCCCNC(=O)c1ncn2c(=O)n(C)nnc12` [TP3, N-hexyl-3-methyl-4-oxo-3,4-dihydroimidazo[5,1-d][1,2,3,5]tetrazine-8-carboxamide], the pIC50 in series [1] (read-out: IC50 With O^6-BG pretreatment) is 3.17; in series [1] (read-out: IC50 Without O^6-BG pretreatment), 2.98. Moreover, the tumor volume result in series [6] is recorded as “significantly reduced”. Besides, the tumor weight entry in series [6] is “significantly reduced”.
